Structures can show the parent of a compound that is named as a salt.
Tests used:
Lp-PLA2 in human plasma = target: T1, Lp-PLA2 in human plasma (Homo sapiens, UniProt Q13093); assay: Lp-PLA2 human plasma assay (Thio-PAF assay); type: biochemical; settings: pooled human plasma, 2-thio-PAF substrate; read-out: pIC50 in the thio-PAF assay (converted)
T1 construct: This assay may detect the activity of Lp-PLA2 in human plasma; from tissue; host or cells: pooled human plasma
T1 sequence (Q13093 22-441): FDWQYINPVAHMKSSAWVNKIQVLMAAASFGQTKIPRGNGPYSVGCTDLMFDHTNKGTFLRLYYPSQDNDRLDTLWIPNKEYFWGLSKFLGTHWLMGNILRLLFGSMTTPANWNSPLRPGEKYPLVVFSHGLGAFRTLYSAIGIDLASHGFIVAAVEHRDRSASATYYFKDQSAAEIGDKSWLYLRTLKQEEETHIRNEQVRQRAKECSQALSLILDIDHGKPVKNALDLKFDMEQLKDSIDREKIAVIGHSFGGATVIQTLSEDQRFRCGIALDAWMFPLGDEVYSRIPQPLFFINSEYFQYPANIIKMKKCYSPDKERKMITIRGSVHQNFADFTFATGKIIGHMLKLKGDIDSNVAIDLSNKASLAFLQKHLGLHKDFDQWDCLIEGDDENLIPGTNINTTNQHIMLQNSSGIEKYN
Description: (3) Lipoprotein-Associated Phospholipase A2 (Lp-PLA2) Human Plasma Assay (Also Referred to as “Thio-PAF Assay”)
The human plasma assay utilizes a thioester analog of PAF (phosphatidylcholine), where hydrolysis yields to the formation of a phospholipid containing a free thiol group. The amount of thiol is quantitated continuously by reacting with CPM (7-diethylamino-3-(4′-maleimidylphenyl)-4-methylcoumarin), a maleimide which increases in fluoresence after Michael addition of thiols. This assay may detect the activity of Lp-PLA2 in human plasma, as determined by specific inhibition by Lp-PLA2 inhibitors.
The thio-PAF assay was run as a quenched 15 μL assay. Compounds source plate was prepared by making 1:3 (by volume) serial dilution of the compounds into pure DMSO on 384-well microplate. 0.01 μL of compounds on compound source plate were transferred to 384 well Greiner 784076 (black) low-volume plates by ECHO liquid dispenser. 8 μL pooled human plasma, which was previously aliquoted and frozen, was added. Plates were centrifuged for 10 sec at 500 rpm. After 30 minutes preincubation, 2 μL of substrate solution comprising 2.5 mM 2-thio-PAF [from ethanol stock], 32 μM CPM [from a DMSO stock] and 3.2 mM NEM (N-ethylmaleimide) [made fresh daily in DMSO] in assay buffer of 50 mM HEPES, pH 7.4, 150 mM NaCl, 1 mM CHAPS was added to 384 well Greiner 784076 (black) low-volume plates by BRAVO liquid handling station. After 2 mins, reaction was quenched with 5 μL of 5% aqueous trifluoroacetic acid (TFA). Plates were covered to protect from light and incubated for 40 min at room temperature. Plates were read at ex: 380/em: 485 using-Envision microplate reader. pIC50 data, curve and QC analysis was conducted by using XLFit module in Excel.

[1] = target: T2, recombinant human Lp-PLA2 (Homo sapiens, UniProt Q13093); assay: Recombinant human Lp-PLA2 assay (rhLp-PLA2, PED6 assay); type: biochemical; settings: recombinant human Lp-PLA2, PED6 substrate; upper limit for pIC50 in this assay is 9.3
T2 sequence (Q13093 22-441): T1 sequence (Q13093 22-441)
Description: (1) Recombinant Human Lp-PLA2 Assay (rhLp-PLA2) (Also Referred to as “PED6” Assay)
N-((6-(2,4-dinitrophenyl)amino)-hexanoyl)-2-(4,4-difluoro-5,7-dimethyl-4-bora-3a,4a-diaza-s-indacene-3-pentanoyl)-1-hexadecanoyl-sn-glycero-3-phosphoethanolamine, triethylammonium salt (PED6) is a commercially available fluorescently-labeled phospholipid, which is commercially available from Invitrogene and Molecular Probes. There is a quenching […] and a Bodipy fluorescein (FL) group in the sn2 position. Upon cleavage with Lp-PLA2, the Bodipy FL group is liberated and then may result in an increase in fluorescence. Inhibitors of Lp-PLA2 therefore prevent this cleavage and no fluorescent increase is observed.
The PED6 assay was run as an unquenched 10 μL assay. The source plate containing the compounds to be tested was prepared by making 1:3 (by volume) serial dilution of the compounds within DMSO on 384-well microplate. Then, 0.01 μL of the compounds on compound source plate were transferred into 384 well Greiner 784076 (black) plates using ECHO liquid dispenser. 5 µL of recombinant human Lp-PLA2 enzyme (4 nM (or 110 pM) rhLp-PLA2 in assay buffer of 50 mM HEPES, pH 7.4, 150 mM NaCl, 1 mM CHAPS) was added to each well of the plate. Plates were centrifuged for 10 sec at 500 rpm. After 30 minutes preincubation, 5 µL of substrate (4 μM (or 5 μM) PED6 [from 5 mM DMSO stock] in assay buffer of 50 mM HEPES, pH 7.4, 150 mM NaCl, 1 mM CHAPS) was added to 384 well Greiner 784076 (black) plates. Plates were centrifuged for 10 sec at 500 rpm. The plate was covered to protect it from light and incubated for 20 min at room temperature. The plates were read for fluorescence intensity at ex: 480/em: 540 using ViewLux microplate imager for Envision spectrofluroimeters pIC50 data, curve and QC analysis was conducted by using XL fit module in Excel.
The compounds described below were tested generally according to the PED6 assay described above.

N#Cc1cccc(COc2cc3n(c(=O)n2)CCN3)c1 [Example E60, 3-(((5-oxo-1,2,3,5-tetrahydroimidazo[1,2-c]pyrimidin-7-yl)oxy)methyl)benzonitrile]
IC50 (Lp-PLA2 in human plasma): ≤ 1000 nM

CN1CCn2c1cc(OCc1ccc(Oc3cccc(C#N)c3)c(F)c1)nc2=O [Example E63, 3-(2-fluoro-4-(((1-methyl-5-oxo-1,2,3,5-tetrahydroimidazo[1,2-c]pyrimidin-7-yl)oxy)methyl)phenoxy)benzonitrile, trifluoroacetic acid salt]
IC50 [1]: ≤ 10 nM

CN1CCn2c1cc(OCc1cc(F)c(F)c(F)c1)nc2=O [Example E17, 1-methyl-7-((3,4,5-trifluorobenzyl)oxy)-2,3-dihydroimidazo[1,2-c]pyrimidin-5(1H)-one]
IC50 (Lp-PLA2 in human plasma): ≤ 1000 nM

CC(C)N1CCn2c1cc(OCc1ccc(F)c(F)c1)nc2=O [Example E47, 7-((3,4-difluorobenzyl)oxy)-1-isopropyl-2,3-dihydroimidazo[1,2-c]pyrimidin-5(1H)-one, trifluoroacetic acid salt]
IC50 (Lp-PLA2 in human plasma): ≤ 1000 nM

CN1CCn2c1cc(OCc1ccc(Oc3ccc(F)cc3)c(C#N)c1)nc2=O [Example E22, 2-(4-fluorophenoxy)-5-(((1-methyl-5-oxo-1,2,3,5-tetrahydroimidazo[1,2-c]pyrimidin-7-yl)oxy)methyl)benzonitrile]
IC50 [1]: ≤ 10 nM

N#Cc1cc(COc2cc3n(c(=O)n2)CCN3)ccc1Oc1cnc(F)c(F)c1 [Example 117, 2-((5,6-difluoropyridin-3-yl)oxy)-5-(((5-oxo-1,2,3,5-tetrahydroimidazo[1,2-c]pyrimidin-7-yl)oxy)methyl)benzonitrile]
IC50 [1]: ≤ 10 nM

CN1CCn2c1cc(OCc1cc(F)c(Oc3ccc(F)cc3)c(F)c1)nc2=O [Example E12, 7-((3,5-difluoro-4-(4-fluorophenoxy)benzyl)oxy)-1-methyl-2,3-dihydroimidazo[1,2-c]pyrimidin-5(1H)-one]
IC50 [1]: ≤ 10 nM

O=c1nc(OCc2ccc(F)c(F)c2)cc2n1CCN2 [Example E68, 7-((3,4-difluorobenzyl)oxy)-2,3-dihydroimidazo[1,2-c]pyrimidin-5(1H)-one]
IC50 (Lp-PLA2 in human plasma): ≤ 1000 nM

O=c1nc(OCc2cc(F)c(Oc3ccc(F)cc3)c(F)c2)cc2n1CCN2 [Example E74, 7-((3,5-difluoro-4-(4-fluorophenoxy)benzyl)oxy)-2,3-dihydroimidazo[1,2-c]pyrimidin-5(1H)-one]
IC50 [1]: ≤ 10 nM

CN1CCn2c1cc(OCc1ccc(Oc3cc(F)cc(F)c3)c(F)c1)nc2=O [Example E43, 7-((4-(3,5-difluorophenoxy)-3-fluorobenzyl)oxy)-1-methyl-2,3-dihydroimidazo[1,2-c]pyrimidin-5(1H)-one, trifluoroacetic acid salt]
IC50 [1]: ≤ 10 nM

CN1CCn2c1cc(OCc1ccc(Oc3cncc(C#N)c3)c(F)c1)nc2=O [Example 141, 5-(2-fluoro-4-(((1-methyl-5-oxo-1,2,3,5-tetrahydroimidazo[1,2-c]pyrimidin-7-yl)oxy)methyl)phenoxy)nicotinonitrile]
IC50 (Lp-PLA2 in human plasma): ≤ 1000 nM

Cc1ccc(Oc2ccc(COc3cc4n(c(=O)n3)CCN4C)cc2C#N)cn1 [Example E56, 5-(((1-methyl-5-oxo-1,2,3,5-tetrahydroimidazo[1,2-c]pyrimidin-7-yl)oxy)methyl)-2-((6-methylpyridin-3-yl)oxy)benzonitrile, trifluoroacetic acid salt]
IC50 (Lp-PLA2 in human plasma): ≤ 1000 nM

O=c1nc(OCc2ccc(Oc3cccc(C(F)(F)F)c3)c(Cl)c2)cc2n1CCN2 [Example E61, 7-((3-chloro-4-(3-(trifluoromethyl)phenoxy)benzyl)oxy)-2,3-dihydroimidazo[1,2-c]pyrimidin-5(1H)-one]
IC50 [1]: ≤ 10 nM

O=c1nc(OCc2ccc(Oc3cc(F)cc(C(F)(F)F)c3)c(F)c2)cc2n1CCN2 [Example 151, 7-((3-fluoro-4-(3-fluoro-5-(trifluoromethyl)phenoxy)benzyl)oxy)-2,3-dihydroim-idazo[1,2-c]pyrimidin-5(1H)-one]
IC50 [1]: ≤ 1 nM

CN1CCn2c1cc(OCc1ccc(Oc3cncc(C#N)c3)c(C#N)c1)nc2=O [Example 138, 5-(2-cyano-4-(((l-methyl-5-oxo-1,2,3,5-tetrahydroimidazo[1,2-c]pyrimidin-7-yl)oxy)methyl)phenoxy)nicotinonitrile]
IC50 (Lp-PLA2 in human plasma): ≤ 1000 nM

CN1CCn2c1cc(OCc1ccc(F)c(Oc3cccc(Cl)c3)c1)nc2=O [Example E16, 7-((3-(3-chlorophenoxy)-4-fluorobenzyl)oxy)-1-methyl-2,3-dihydroimidazo[1,2-c]pyrimidin-5(1H)-one]
IC50 [1]: ≤ 10 nM

CN1CCn2c1cc(OCc1ccc(F)c(F)c1)nc2=O [Example E7, 7-((3,4-difluorobenzyl)oxy)-1-methyl-2,3-dihydroimidazo[1,2-c]pyrimidin-5(1H)-one]
IC50 (Lp-PLA2 in human plasma): ≤ 1000 nM

CN1CCn2c1cc(OCc1ccc(F)c(C#N)c1)nc2=O [Example 146, 2-fluoro-5-(((l-methyl-5-oxo-1,2,3,5-tetrahydroimidazo[1,2-c]pyrimidin-7-yl)oxy)methyl)benzonitrile]
IC50 (Lp-PLA2 in human plasma): ≤ 1000 nM

CN1CCn2c1cc(OCc1ccc(Oc3cncc(F)c3)c(C#N)c1)nc2=O [Example 137, 2-((5-fluoropyridin-3-yl)oxy)-5-(((1-methyl-5-oxo-1,2,3,5-tetrahydroimidazo[1,2-c]pyrimidin-7-yl)oxy)methyl)benzonitrile]
IC50 (Lp-PLA2 in human plasma): ≤ 1000 nM

CN1CCn2c1cc(OCc1cccc(C#N)c1)nc2=O [Example E33, 3-(((1-methyl-5-oxo-1,2,3,5-tetrahydroimidazo[1,2-c]pyrimidin-7-yl)oxy)meth-yl)benzonitrile]
IC50 (Lp-PLA2 in human plasma): ≤ 1000 nM

CN1CCn2c1cc(OCc1ccc(Oc3cnc(C(F)(F)F)nc3)c(C#N)c1)nc2=O [Example E31, 5-(((l-methyl-5-oxo-1,2,3,5-tetrahydroimidazo[1,2-c]pyrimidin-7-yl)oxy)methyl)-2-((2-(trifluoromethyl)pyrimidin-5-yl)oxy)benzonitrile]
IC50 (Lp-PLA2 in human plasma): ≤ 1000 nM

CN1CCn2c1cc(OCc1ccc(Oc3ccc(F)c(Cl)c3)c(C#N)c1)nc2=O [Example E39, 2-(3-chloro-4-fluorophenoxy)-5-(((1-methyl-5-oxo-1,2,3,5-tetrahydroimidazo[1,2-c]pyrimidin-7-yl)oxy)methyl)benzonitrile, trifluoroacetic acid salt]
IC50 (Lp-PLA2 in human plasma): ≤ 1000 nM

O=c1nc(OCc2ccc(Oc3ccc(Cl)c(Cl)c3)c(F)c2)cc2n1CCN2 [Example 98, 7-((4-(3,4-dichlorophenoxy)-3-fluorobenzyl)oxy)-2,3-dihydroimidazo[1,2-c]pyrimi-din-5(1H)-one]
IC50 [1]: ≤ 10 nM

CN1CCn2c1cc(OCc1ccc(Oc3ccc(C#N)nc3)c(C#N)c1)nc2=O [Example 108, 5-(2-cyano-4-(((1-methyl-5-oxo-1,2,3,5-tetrahydroimidazo[1,2-c]pyrimidin-7-yl)oxy)methyl)phenoxy)picolinonitrile]
IC50 (Lp-PLA2 in human plasma): ≤ 1000 nM
